Patent publication US6979747B2, “Antioxidants, preparation processes and their uses” (Centre National de la Recherche Scientifique (CNRS), priority 1999, dated 2005)

Legend:
[1] = system: GSH; experiment: Intracellular GSH in MDMs infected with HIV-1/Ba-L; format: cell-based, human; conditions: conditions of stress
Procedure: The intracellular GSH was assayed by means of the assay kit sold by Cayman. This method for assaying glutathione is an adaptation of that described by O. W. Griffith et al. (1980).
The compound I-152 and its derivatives are prepared extemporaneously by being dissolved in dimethyl sulfoxide (DMSO) at the concentration of 100 mM. They are subsequently stored at −20° C. after having been diluted 10 fold in phosphate buffer (PBS).

[2] = target: T1, RT of the HIV-1 LAI isolate (Human immunodeficiency virus type 1 group M subtype B, UniProt P03367); experiment: Acellular test of the enzymatic activity of RT; format: biochemical; conditions: for decrease of RT activity: 500 μM
T1 construct: The RT is released by lysis of the viral pellet in 20 μl of NTE-Triton; endogenous in cells; host or cells: Virions pelleted by ultracentrifugation from supernatants of infected cell cultures
Procedure: (§1) The viral replication is measured by assaying the RT activity in the culture supernatants according to the technique described by F. Rey et al. (Biochem. Biophys. Res. Comm., 1984, 121, 126-133). The radioactivity incorporated during the extension of the complementary strand of a poly-rA synthetic matrix in the presence of an oligo-dT12-18 primer and of a radiolabeled substrate, [^3H-methyl]thymidine-5′-triphosphate ([^3H]TPP), makes it possible to assay the enzymatic activity of RT. 400 μl of supernatant are ultracentrifuged at 360 000 g for 5 min. The RT is released by lysis of the viral pellet in 20 μl of NTE-Triton (100 mM NaCl, 10 mM Tris, 1 mM EDTA, 0.1% Triton X-100). These 20 μl are subsequently incubated with 40 μl of the following reaction mixture: 62.5 mM Tris, pH 7.8; 25 mM KCl; 6.25 mM MgCl2; 1.25 mM dithiothreitol (DTT); 2.5×10^−3 ODU oligo-dT12-18 and poly-rA, 5.55×10^−3 TBq {^3H]TTP. After one hour at 37° C., the enzymatic reaction is halted and the newly synthesized strands are precipitated for 20 min at 4° C. by the addition of 1 ml of sodium pyrophosphate (NaPP), of 50 μl of yeast DNA (0.1 mg/ml in 5% trichluoroacetic acid (TCA)), and of 4 ml of 20% TCA. The mixture is filtered using a cellulose acetate membrane (Millipore) which retains the radiolabeled poly-dT chains. The filter is washed using 20 ml of 5% TCA and the residual water is removed by addition of 25 μl of 70% ethanol. The filter is dried in an oven for 10 minutes at 80° C. and is then introduced into vials containing 8 ml of liquid scintillant. The β radioactivity is quantified by means of a scintillation counter (Packard Bell). The results are expressed in pM of [^3H]-TMP incorporated/h/ml of supernatant or, more simply, in cpm/h/ml.
The I-152 molecule is composed of NAC and MEA, which are capable of inhibiting the activity of RT (A. Bergamini et al., J. Clin. Invest., 1994, 93, 2251-2257). For this reason, the inhibiting capacity of I-152 with respect to the RT activity was measured using an acellular test. This test was carried out according to the protocol described above (§ 3.3.3.1.). In the reaction mixture, only the 20 μl of water are replaced by 20 μl of a concentration of I-152 or of the reference compounds. Heparin, known for inhibiting the activity of RT and of the other DNA polymerases, is used as positive control for inhibition.

[3] = system: HIV-1/Ba-L; experiment: Antiviral activity in MDM cultures infected with HIV-1/Ba-L (RT activity in culture supernatants); format: cell-based; conditions: for EC50: Human immunodeficiency virus 1, BAL, MDMs infected with 10 000 TCID50s HIV-1/Ba-L (m.o.i. 0.01), read-out: inhibiting concentration (50% effective dose); for antiviral activity (in words): second series, compounds dissolved in DMSO then diluted, MDMs, HIV-1/Ba-L
Procedure: A million monocytes in 1 ml of culture medium A are distributed in each well of a 48 well plate (Becton-Dickinson). The monocytes are left to differentiate into macrophages for 7 days. The macrophages thus differentiated are maintained in culture in medium A.
(§2) The MDMs were infected with the reference isolate with macrophage tropism, HIV-1/Ba-L. The PBMCs and the PBLs were infected with the reference isolate with lymphocyte tropism HIV-1 LAI. The viral stock were formed by amplifying these strains in vitro using umbilical blood mononucleated cells (UBM(s) preactivated with 1 μg/ml of PHA-P and cultured in medium A supplemented by 20 IU/ml of IL-2. In order to remove the soluble factors, such as cytokines, the culture supernatants were ultracentrifuged at 360 000 g for 5 min, and the pellets were resuspended in RPMI 1640. The viral stocks thus formed were subsequently titred using PBMCs activated with PHA-P. The TCID50s (50% Tissue Culture Infectious Dose) were calculated using the Kärber formula.
(§3) A million MDMs were infected with 10 000 TCID50s of the HIV-1/Ba-L strain. This amount of virus corresponds to a multiplicity of infection (m.o.i.) equal to 0.01. The excess of virus is removed 24 h after by washing with cells using RPMI 1640. The PBLs and the PBMCs were infected with 10 000 TCID50s of the HIV-1 LAI strain (moi=0.01). The cells were washed at the end of the second day of infection.
as §1
The 50% effective doses (ED50) are calculated from the cumulative RT activities using the software “Dose-effects analysis with microcomputers” developed by J. Chou & T. C. Chou.

[4] = system: total glutathione (GSH+GSSG); experiment: Total intracellular glutathione in quiescent PBMCs; format: cell-based, human; conditions: quiescent PBMCs; for effect on intracellular level of glutathione (in words): 24 h treatment
[5] = system: HIV-1 LAI; experiment: Antiviral activity in quiescent or PHA-P activated PBMCs infected with HIV-1 LAI; format: cell-based; conditions: quiescent and activated PBMCs, at known cytotoxic doses (so in the source)
Procedure: (§4) For some experiments, the PBMCs and the PBLs are activated for 48 h with 1 μg/ml of a mitogen, PHA-P (Difco Laboratories). The PBMCs and the PBLs are cultured in medium A (quiescent) or B (activated). The cells are cultured at 37° C. in an atmosphere saturated with moisture under 5% of CO2. The culture supernatants are removed and the culture media are replaced every three or four days. At each renewal of the culture media, the cell viability is evaluated by coloring with trypan blue or by microscopic observation.
as §2, §3, §1
The PBMCs, quiescent or activated by PHA-P, were infected by the reference strain with lymphocyte tropism HIV-1 LAI. All the culturings were carried out in parallel and the drugs were maintained throughout the culturing.

[6] = system: HIV-1 LAI; experiment: Antiviral activity in quiescent or PHA-P activated PBLs infected with HIV-1 LAI; format: cell-based; conditions: quiescent PBLs or PBLs activated by PHA-P
Procedure: as §4, §2
A million MDMs were infected with 10 000 TCID50s of the HIV-1/Ba-L strain. This amount of virus corresponds to a multiplicity of infection (m.o.i.) equal to 0.01. The excess of virus is removed 24 h after by washing with cells using RPMI 1640. […]
The viral replication is measured by assaying the RT activity in the culture supernatants according to the technique described by F. Rey et al. (Biochem. Biophys. Res. Comm., 1984, 121, 126-133). The radioactivity incorporated during the extension of the complementary strand of a poly-rA synthetic matrix in the presence of an oligo-dT12-18 primer and of a radiolabeled substrate, [^3H-methyl]thymidine-5′-triphosphate ([^3H]TPP), makes it possible to assay the enzymatic activity of RT. […] The β radioactivity is quantified by means of a scintillation counter (Packard Bell). […]

[7] = system: MDMs; experiment: Cytotoxicity with respect to MDMs (neutral red); format: cell-based, human
Procedure: These tests are carried out systematically in parallel with the evaluation of the antiviral activity. In view of the oxidation/reduction capacity of the molecules tested, the test with the tetrazolium salt, which measures the activity of mitochondrial dehydrogenases, cannot be used.
Neutral red (NR) is a vital dye which makes it possible to measure the viability of adherent cells, such as MDMs. 600 μl of culture supernatant are removed and replaced with 400 μl of an NR solution (0.001% m/v in phosphate buffer, PBS, Boehringer Mannheim), filtered at 0.45 μm. The cells were incubated for 1 h at 37° C. and are subsequently washed (2×1 ml of PBS). The cells are then lysed at −20° C. with 200 μl of a 50% ethanol mixture comprising 1% of glacial acetic acid. The OD is measured twice with 100 μl of solution using a spectrophotometer.

[8] = system: PBMCs; conditions: PBMC cultures
[9] = system: PBLs; conditions: PBL cultures
[10] = system: HIV provirus; experiment: Quantification of proviral DNAs by PCR (integration of the provirus within the cell genome); format: cell-based; conditions: 10 μM
Procedure: I-152 is composed of MEA and NAC, which are capable of interacting with the early phases of the biological cycle of HIV. It is therefore capable of decreasing the integration of the provirus into the cell genome. In order to measure these effects, the proviral DNAs were quantified by PCR. The cells were lysed using 1 ml of the following lysis solution: 10 mM Tris HCl pH 8; 100 mM of EDTA pH 8; 0.5% of sodium dodecyl sulfate (SDS); 20 μg/ml of DNAse-free bovine pancreatic RNAse. 200 μg/ml of proteinase K are subsequently added to this suspension. The DNAs were subsequently extracted using 1 ml of an ice-cold saturated phenol solution and 1 ml of a […] solution.
The viral DNAs were then amplified by means of specific primers of the gag gene (SK01/SK39) and of a standard range of the 8E5 line, a chronically infected line, the cells of which carry a proviral copy. The β-globin gene was used as reporter gene in order to make sure of the quality of the DNA extraction.

## CC(=O)N[C@@H](CS)C(=O)O [NAC, N-Acetyl-L-cysteine]
[1]
  regeneration of GSH under conditions of stress (in words): ineffective
[2]; acellular system
  inhibiting activity with respect to RT (in words): do not exhibit an inhibiting activity
[3]
  EC50: 9.4 mM
[4]
  effect on intracellular level of glutathione (in words): better at increasing the intracellular level of glutathione
[4]; dose 15 mM
  intracellular concentration of total glutathione: ~2.64 ± 0.13 µM
[5]
  inhibition of viral replication (in words): do not inhibit viral replication
[6]
  antiviral activity (in words): do not have or have a very slight antiviral activity
[7]; MDMs, 15 mM
  cytotoxicity: 70%
[7]; MDMs, 40 mM
  cytotoxicity: 91%
[7]; MDMs
  cytotoxicity at antiviral doses (in words): cytotoxic

## NCCS [MEA, cysteamine, reference compound]
[1]
  regeneration of GSH under conditions of stress (in words): ineffective
[8]
  dose from which cytotoxic: 500 µM
[2]; exp. 1
  decrease of RT activity: 29±1%
[2]; exp. 2
  decrease of RT activity: 48±4%
[3]
  EC50: 0.3 mM
[9]
  dose from which cytotoxic: 500 µM
[4]; 500 μM
  intracellular glutathione at high concentration (in words): decrease
[4]
  effect on intracellular level of glutathione (in words): does not significantly alter the intracellular level of glutathione
[5]
  inhibition of viral replication (in words): do not inhibit viral replication
[6]
  antiviral activity (in words): do not have or have a very slight antiviral activity
[7]; MDMs, 500 μM
  decrease of the viability of MDMs: 65%
[7]; MDMs
  cytotoxicity at antiviral doses (in words): cytotoxic

## CC(=O)N[C@@H](CSC(=O)C(C)(C)C)C(=O)NCCSC(C)=O [I-178, N-(N-acetyl-S-pivaloyl-L-cysteinyl)-S-acetylcysteamine]
[3]
  antiviral activity (in words): activities similar to that of I-152

## CC(=O)N[C@@H](CSC(=O)C(C)C)C(=O)NCCSC(C)=O [I-177, N-(N-acetyl-S-isobutyryl-L-cysteinyl)-S-acetylcysteamine]
[3]
  antiviral activity (in words): activities similar to that of I-152

## Cc1cn([C@H]2C[C@H](N=[N+]=[N-])[C@@H](CO)O2)c(=O)[nH]c1=O [AZT, 3′-azido-3′-deoxythymidine, reference compound]
[10]
  inhibition of integration of the provirus (in words): perfect

## heparin
[2]; 1 mg/ml, acellular
  inhibition of RT activity (in words): completely inhibits

## CC(=O)N[C@@H](CSC(C)=O)C(=O)NCCSC(C)=O [I-176, N-(N,S-bisacetyl-L-cysteinyl)-S-acetylcysteamine]
[7]; FIG. 12, at the dose tested
  cytotoxicity (in words): cytotoxic
[7]; MDMs, 150 μM, second series in DMSO
  toxicity (in words): slightly toxic
